Test results taken from patent EP4643657A1, “COMPOSITIONS CONTAINING SHORT-CHAIN FATTY ACID, METHODS OF USE, AND METHODS OF MAKING THEREOF” (Velocity Life Sciences, LLC, priority 2024, dated 2025).
Several values for one entry are separate records, joined by “and”; a condition that tells them apart may be missing. Identical values can stand only once. Entries after “also recorded” stand apart in the source; their conditions may differ.

Legend:
[1] = Exposure of the prepared salt to air at room temperature (hygroscopicity, storage stability); assay type: physicochemical; conditions: for Hygroscopicity: exposed at room temperature to air
Description: The L-arginine butyrate prepared using ethanol as the sole solvent was a white to off-white powder.
The L-lysine butyrate prepared using ethanol as the sole solvent was a light, pale yellow to yellow powder. […] Table 1: Attempted preparation of salts of amino acids and amino acid derivatives of butyric acid.

[2] = Nootropic and related properties after oral administration (Example 3); assay type: in vivo, human
Protocol: In another experiment, L-lysine butyrate in a dose range of 500 mg to 5,000 mg was administered as an aqueous solution to six individuals aged between 22 and 55 years, comprising two women and four men. […] The observed effects were dose-dependent, with larger doses of L-lysine butyrate providing greater effects and longer duration, lasting up to four hours.
In another experiment, L-lysine butyrate in a dose of 2 g, and on a separate occasion 5 g, was administered in encapsulated form, to 2 individuals. A further individual was administered L-lysine butyrate in a dose of 2 g in encapsuled form.

[3] = Visual-analog scales of affect, randomized three-arm crossover trial (Example 5); assay type: in vivo, human
Protocol: Experimental Design: This was a randomized, three-arm, crossover trial in which participants visited the laboratory on four occasions (one screening visit and three testing visits). […] Written informed consent was obtained from all subjects prior to enrollment. The study was retrospectively registered on clinicaltrials.gov (#NCT06700785). This study was conducted at The Center for Applied Health Sciences, a contract research organization located in Northeast Ohio. […] VAS assessed subjective ratings of state of well-being, calm and relaxed, stressed and anxious, mood, motivation to perform tasks, level of alertness, and ability to concentrate and were anchored with "Worst possible", "Lowest possible", "Strongly Disagree", or "Best Possible", "Highest Possible", "Strongly Agree". […] Statistical Analyses: Normality was assessed using Q-Q plot and Shapiro-Wilks test. Severe non-normal measures were normalized using log (In) transformation. Serum butyrate concentrations, subjective ratings of affect, and vitals over time between treatments were analyzed using a mixed effects factorial ANOVA . Tukey post hocs were applied if significant main effects/interactions were observed. […] Effect sizes are reported as Cohen's d (with 0.2 considered a small effect, 0.5 considered a medium effect, and 0.8 considered a large effect). All analyses were conducted in GraphPad Prism v.10.4.0.

[4] = Serum butyrate pharmacokinetics, randomized three-arm crossover trial (Example 5); conditions: for Serum Butyrate: 10 healthy men, Mean ± SD; for Tmax comparison between treatments: Wilcoxon rank test; for AUC0-210 comparison between treatments / Cmax comparison between treatments: paired samples t-test
[5] = seven (7) days at room temperature
[6] = 500 mg to 5,000 mg as aqueous solution, six individuals
[7] = 0 min (prior to ingestion), 100-mm VAS, Mean±SD
[8] = motivation to perform tasks, 0 min (prior to ingestion), 100-mm VAS, Mean±SD

## CCCC(=O)O [L-Lysine Butyrate, L-lysine butyrate]
[1]; 24 hours at room temperature
  Appearance after exposure to air: remained a fine, free-flowing yellow powder
[1]
  Hygroscopicity: not hygroscopic
[1]; [5]
  Appearance after exposure to air: remained a fine, free-flowing powder with no color change
[1]; thirty (30) days at room temperature
  Appearance after exposure to air: remained a fine, free-flowing powder
[2]; 500 mg to 5,000 mg as aqueous solution
  Dose dependence of observed effects: dose-dependent
[2]; [6]
  Effects reported by participants: more relaxed, less tired, more sociable, and able to concentrate on tasks more effectively
  Time to reported effects after administration: thirty
[2]; 500 mg to 5,000 mg as aqueous solution, larger doses
  Duration of effects: up to four
[2]; 2 g oral, encapsulated form, two of the individuals
  Analgesic effect: analgesic effect, eliminating minor-to-moderate pain and discomfort
[2]; single oral administration of 2 g, encapsulated form
  Mental effects: pleasant mental effects, including an improvement in focus, alertness, concentration, reduction in anxiety, and a general feeling of well-being
[2]; single oral administration of 5 g, encapsulated form
  Mental effects: undesirable mental effects, interfering with focus and alertness, with effects similar to intoxication
[3]; [7]
  Alertness: 6.9 ± 1.5^€
  Calm and Relaxed: 7.5 ± 0.8^# cm
  Concentration: 7.1 ± 1.3 cm
  Mood: 7.7 ± 0.9 cm
  Stressed and Anxious: 2.0 ± 1.4 cm
  Well-being: 7.3 ± 0.9 cm
[3]; in vivo, po
  Alertness: 7.2 ± 1.3 and 7.4 ± 1.2 and 7.5 ± 1.2 and 7.5 ± 1.1
  Alertness AUC: 1544 ± 249
  Calm and Relaxed: 7.7 ± 0.9^# cm and 7.6 ± 1.2 cm and 7.6 ± 1.1^# cm and 8.0 ± 0.9 cm
  Calm and Relaxed AUC: 1612 ± 207
  Concentration: 7.1 ± 1.4 cm and 7.5 ± 1.3^β cm and 7.4 ± 1.1 cm and 7.3 ± 1.6 cm
  Concentration AUC: 1532 ± 241
  Mood: 7.9 ± 0.7 cm and 7.6 ± 1.1 cm and 8.0 ± 0.7 cm and 8.0 ± 0.8 cm
  Mood AUC: 1651 ± 171
  Perform Tasks: 7.1 ± 1.3 cm and 7.4 ± 1.1 cm and 7.6 ± 1.3 cm
  Perform Tasks AUC: 1547 ± 262
  Stressed and Anxious: 2.1 ± 1.6 cm and 2.3 ± 1.7 cm and 1.8 ± 1.3 cm and 2.0 ± 1.3 cm
  Stressed and Anxious AUC: 431 ± 288
  Well-being: 7.6 ± 0.9^# cm and 7.6 ± 1.1 cm and 7.7 ± 1.0^# cm and 8.0 ± 0.9 cm
  Well-being AUC: 1610 ± 195
[3]; [8]
  Perform Tasks: 6.9 ± 1.7 cm
[4]; 0 min (baseline, prior to ingestion)
  Serum Butyrate: 0.32 ± 0.43 µg/mL
[4]; 20 min post ingestion, oral, 3 capsules delivering 786 mg of butyric acid
  Serum Butyrate: 4.53 ± 7.56 µg/mL
[4]; 45 min post ingestion, oral, 3 capsules delivering 786 mg of butyric acid
  Serum Butyrate: 0.77 ± 1.49 µg/mL
[4]; 90 min post ingestion, oral, 3 capsules delivering 786 mg of butyric acid
  Serum Butyrate: 0.39 ± 0.62 µg/mL
[4]; 150 min post ingestion, oral, 3 capsules delivering 786 mg of butyric acid
  Serum Butyrate: 0.43 ± 0.64 µg/mL
[4]; 210 min post ingestion, oral, 3 capsules delivering 786 mg of butyric acid
  Serum Butyrate: 0.37 ± 0.55 µg/mL
[4]; listed as LysB
  Tmax comparison between treatments: did not differ from NaB; also recorded: significantly less than TB
  AUC0-210 comparison between treatments: did not differ from NaB; also recorded: significantly greater than TB
  Cmax comparison between treatments: did not differ from NaB; also recorded: significantly greater than TB

## L-arginine butyrate
[1]; 24 hours at room temperature
  Appearance after exposure to air: formed hard, rock-like clumps
[1]
  Hygroscopicity: quite hygroscopic
[1]; [5]
  Appearance after exposure to air: significantly hydrated into, large solid masses

## CCCC(=O)[O-].[Na+] [Sodium Butyrate, Sodium butyrate]
[3]; [7]
  Alertness: 6.4 ± 1.2
  Calm and Relaxed: 7.6 ± 0.9 cm
  Concentration: 6.4 ± 1.2 cm
  Mood: 7.1 ± 1.2 cm
  Stressed and Anxious: 2.4 ± 1.4 cm
  Well-being: 7.0 ± 1.2 cm
[3]; in vivo, po
  Alertness: 6.5 ± 1.6 and 6.8 ± 1.3 and 6.7 ± 1.6 and 7.1 ± 1.8
  Alertness AUC: 1411 ± 293
  Calm and Relaxed: 7.3 ± 1.2 cm and 7.6 ± 1.0 cm and 7.9 ± 1.1^¥ cm and 7.9 ± 1.2 cm
  Calm and Relaxed AUC: 1608 ± 216
  Concentration: 6.4 ± 1.7 cm and 6.6 ± 1.5 cm and 6.5 ± 1.9 cm and 6.9 ± 2.1 cm
  Concentration AUC: 1371 ± 343
  Mood: 7.1 ± 1.1 cm and 7.4 ± 1.2 cm and 7.7 ± 1.0 cm and 7.8 ± 1.2 cm
  Mood AUC: 1558 ± 215
  Perform Tasks: 6.8 ± 1.6 cm and 7.1 ± 1.3 cm and 6.9 ± 1.7 cm and 7.1 ± 1.5 cm
  Perform Tasks AUC: 1452 ± 297
  Stressed and Anxious: 2.3 ± 1.5 cm and 2.3 ± 1.6 cm and 2.1 ± 1.8 cm and 2.0 ± 1.8 cm
  Stressed and Anxious AUC: 466 ± 339
  Well-being: 7.2 ± 1.2 cm and 7.3 ± 1.2 cm and 7.5 ± 1.1 cm and 7.6 ± 1.3 cm
  Well-being AUC: 1543 ± 242
[3]; [8]
  Perform Tasks: 6.5 ± 1.4^£ # cm
[4]
  Tmax comparison between treatments: significantly less than TB
  AUC0-210 comparison between treatments: significantly greater than TB
  Cmax comparison between treatments: significantly greater than TB
